Experiments:
[1] = system: Pseudomonas aeruginosa PA14 wild-type; experiment: microbe, parasite or virus in culture; assay type: cell-based; conditions: for differences in planktonic cell susceptibility between the different strains: wild type vs gacS^− vs SCV, log2 difference or less; for MIC72 h: wild type, planktonic cells, OD650 after 72 h at 35° C., mean ± SD of four trials
Method: (§1) Antimicrobial susceptibility testing. Antibiotic, metal and biocide susceptibility tests were performed. Antimicrobials were arranged into arrays in microtitre plates that typically consisted of serial two-fold dilutions along the rows of wells (the challenge plates). The first and last wells of every row were used as sterility and growth controls, respectively. […] Biofilms were rinsed with PBS (to remove loosely adherent planktonic cells) and inserted into the challenge plates. After exposure, biofilms were rinsed once in PBS and inserted into microtitre plates containing […] of recovery medium in each well (LB broth, 5 mM GSH, 5 mM L-cys, 1% v/v tween-20). These biofilms were disrupted into the recovery medium using a sonicator, and the recovered cells were serially diluted and plated for viable cell counting. Spot plates from these experiments were incubated for a minimum of 36 h at 35° C. before enumeration. Minimum inhibitory concentration (MIC) values were determined by reading the optical density at 650 nm (OD650) of challenge plates after 72 h at 35° C. using a THERMOmax microplate reader with SOFTMAX PRO data analysis software (Molecular Devices, Sunnyvale, Calif.).
(§2) For susceptibility testing, growth-curve data were used to calibrate incubation times to produce biofilms of similar cell density. […] In this model system, planktonic cells shed from the surface of biofilms served as the inoculum for MIC determinations.

[2] = system: Pseudomonas aeruginosa PA14 SCV; experiment: MIC determination, planktonic cells shed from biofilms (MBEC P&G device); assay type: cell-based; conditions: SCV; planktonic cells; OD650 after 72 h at 35° C.; mean ± SD of four trials
Method: as §1, §2

[3] = system: Pseudomonas aeruginosa PA14 gacS^−; experiment: as above; assay type: cell-based; conditions: gacS^−; planktonic cells; OD650 after 72 h at 35° C.; mean ± SD of four trials
Method: as §1, §2

[4] = system: Pseudomonas aeruginosa PA14 wild-type biofilms; assay type: cell-based; conditions: for MBEC99.9: wild type biofilms, 2 h exposure, 3 log10 reduction in viable cells
From the text: (§3) Biofilm formation. Biofilms were aerobically cultivated using the MBEC high-throughput (HTP) or Physiology and Genetics (P&G) device (Innovotech, Edmonton, Canada) as described in the manufacturer's instructions and by Ceri et al. (1999). To summarize, the parts of this batch culture apparatus were used in two ways. The top half of the plastic MBEC™-HTP device is a lid with 96 polystyrene pegs that also fits over a standard 96-well microtitre plate. For Biofilm growth, the bottom half was either (1) a corrugated trough that guided 22 mL of inoculum across the pegs when the device was placed on a rocker at 3.5 rocks per min (HTP format), or (2) a microtitre plate with […] of inoculum in each well that was placed on a gyrorotary shaker at 150 r.p.m. (P&G format). For either assay format, the inoculum was prepared to c. 10^7CFU/mL1 of the desired strain and the inoculated device was incubated at 35° C. and 95% relative humidity for the required time. Unless otherwise noted, all experiments utilized the MBEC P&G assay. Pegs from the devices were collected at specific time points for scanning electron microscopy and scanning confocal laser microscopy. Biofilm cell densities were evaluated by breaking pegs from the lid of the MBEC device with sterile pliers, rinsing the peg in PBS, and subsequent viable-cell counting as described above. PBS containing the […] surfactant Tween-20 (1% v/v) was used to assist in recovery of bacteria from the peg surfaces. Pegs were sonicated for 30 min in an Aquasonic model 250HT ultrasonic cleaner (VWR International, Mississauga, Canada). Samples of broth culture were collected at the same time points and viable cell counts were determined in a similar manner.
as §1, §2

[5] = system: Pseudomonas aeruginosa PA14 SCV biofilms; experiment: Biofilm susceptibility testing (viable cell counts, log-killing, MBEC99.9); assay type: cell-based; conditions: for MBEC99.9: 2 h exposure, 3 log10 reduction in viable cells; for tolerance of SCV strain biofilms relative to the wild-type strain: ratio of MBEC99.9 values, SCV vs wild type
From the text: as §3, §1, §2

[6] = system: Pseudomonas aeruginosa PA14 gacS^− biofilms; experiment: as above; assay type: cell-based; conditions: for Log-survival / No. of survivors / SCV frequency: LB broth; for Log-survival / No. of survivors / SCV frequency / MBEC99.9: 2 h exposure; for MBEC99.9: gacS^− biofilms, 3 log10 reduction in viable cells
From the text: as §3, §1, §2

[7] = system: Pseudomonas aeruginosa PA14 gacS^− biofilms; experiment: Frequency of SCV cells arising from 24-h biofilms exposed for 18 h; assay type: cell-based; conditions: for frequency of SCVs (phenotypic variants) among surviving cells, in words: 18 h exposure of 24-h biofilms; for Log-survival / SCV frequency: LB broth, antibiotic 1.25 μg mL^−1, overnight (18 h)
Method: In an alternative set of experiments, the frequency of SCV cells arising from 24-h biofilms of P. aeruginosa PA14 gacS was evaluated. Antibiotics were diluted from stock solutions into LB broth to obtain final concentrations of […]. These were arranged in triplicate in a micro-titre plate. Biofilms were incubated in these low concentrations of antibacterials for 18 h at 35° C. and 95% relative humidity. Goat and human serum were also assayed in this array, and were kind gifts from The Life and Environmental Sciences Animal Care Facility at the University of Calgary, Department of Biological Sciences. After exposure, biofilms were treated in a manner identical to that described above.
Frequency of phenotypic variation. During the course of susceptibility assays, the proportion of SCV cells recovered from biofilms after exposure to Ag^+ or H2O2 was increased relative to the corresponding growth controls. It was queried whether this may be true for other antimicrobial agents or growth conditions. An array of clinically used antibiotics, saline, and goat and human sera were examined for an ability to select for these SCVs from 24-h biofilms of P. aeruginosa PA14 gacS. Biofilms were exposed to these agents for 18 h and each assay was performed in triplicate. Viable cell counts were determined for each exposure condition, and log-survival was determined. The proportion of SCV cells in bacterial populations recovered from these exposure conditions was calculated as the mean of the proportions from each individual trial.

[8] = system: Pseudomonas aeruginosa PA14 gacS^− biofilms; experiment: as above; assay type: cell-based; conditions: for Log-survival / No. of survivors / SCV frequency: LB broth, overnight (18 h)
[9] = system: P. aeruginosa PA14 gacA biofilms; experiment: Antibiotic susceptibility profiling of biofilms with the MBEC device; assay type: cell-based, Pseudomonas aeruginosa; conditions: in words
Method: Growth Conditions, Sample Analysis and Bio-Assays of Pseudomonas aeruginosa. Biofilm and planktonic growth studies were performed using the Calgary Biofilm Device (CBD) (MBEC™ Biofilm Technologies Limited). Pseudomonas aeruginosa PA14 wild type, gacA and toxA strains were grown for 24 hours in Tryptic Soy Broth (BDH). Biofilm and planktonic populations were sampled at points.
Sampling of biofilm populations was achieved by dislodging a peg from the 96 peg lid, whereas planktonic populations were sampled by removing an aliquot from the growth vessel. Biofilms were disrupted to release individual component cells by sonication. Cell counts of both populations were determined by serial dilution in 0.9% saline and spot plating on Tryptic Soy Agar plates (BDH). Antibiotic susceptibility profiling of P. aeruginosa PA14 wild type, toxA and gacA strains was performed using the MBEC™ device as per manufacturer's instructions (MBEC™ Biofilm Technologies Limited).

Compound: [Ag+] [Ag^+]
- differences in planktonic cell susceptibility between the different strains [1]: no significant differences
- MIC72 h [1]: 40 ± 20 µM
- MIC72 h [2]: 40 ± 0 µM
- MIC72 h [3]: 40 ± 10 µM
- concentration at which the vast majority of cell viability was lost ([4]; PA14 wt biofilms, 2 h exposure (FIG. 15)): 0.04 mM
- MBEC99.9 [4]: 0.08 ± 0.05 mM
- concentration to which biofilms were resistant ([5]; SCV biofilms, 2 h exposure (FIG. 15)): 2.4 mM
- MBEC99.9 ([5]; SCV biofilms): 4.8 ± 0 mM
- tolerance of SCV strain biofilms relative to the wild-type strain [5]: ~60 times
- Log-survival ([6]; 4 μg mL^−1): −2.6 ± 0.1 log10 CFU peg^−1
- No. of survivors ([6]; 4 μg mL^−1): 2.4 ± 0.1 log10 CFU peg^−1
- SCV frequency ([6]; 4 μg mL^−1): 7%
- concentration at which the vast majority of cell viability was lost ([6]; PA14 gacS biofilms, 2 h exposure (FIG. 15)): 0.02 mM
- MBEC99.9 [6]: 0.06 ± 0.02 mM
- proportion of SCV cells recovered from biofilms after exposure, relative to growth controls ([6]; susceptibility assays, in words): increased

Compound: NCC[C@H](O)C(=O)N[C@@H]1C[C@H](N)[C@@H](O[C@H]2O[C@H](CN)[C@@H](O)[C@H](O)[C@H]2O)[C@H](O)[C@H]1O[C@H]1O[C@H](CO)[C@@H](O)[C@H](N)[C@H]1O [Amikacin]
- frequency of SCVs (phenotypic variants) among surviving cells, in words [7]: approximately one in five
- Log-survival ([8]; antibiotic 5 μg mL^−1): −2.8 ± 0.6 log10 CFU peg^−1
- No. of survivors ([8]; antibiotic 5 μg mL^−1): 3.6 ± 0.6 log10 CFU peg^−1
- SCV frequency ([8]; antibiotic 5 μg mL^−1): 23%

Compound: C[C@H]1[C@H](NC(=O)/C(=N\OC(C)(C)C(=O)O)c2csc(N)n2)C(=O)N1S(=O)(=O)O [Azetronam]
- Log-survival [7]: −2.6 ± 0.5 log10 CFU peg^−1
- SCV frequency [7]: 24%
- No. of survivors ([8]; antibiotic 1.25 μg mL^−1): 4.5 ± 0.5 log10 CFU peg^−1

Compound: CO/N=C(\C(=O)N[C@@H]1C(=O)N2C(C(=O)O)=C(CSc3nc(=O)c(O)nn3C)CS[C@H]12)c1csc(N)n1 [Ceftrioxone]
- frequency of SCVs (phenotypic variants) among surviving cells, in words [7]: approximately one in three
- Log-survival [7]: +0.4 ± 0.5 log10 CFU peg^−1
- SCV frequency [7]: 29%
- No. of survivors ([8]; antibiotic 1.25 μg mL^−1): 6.8 ± 0.5 log10 CFU peg^−1

Compound: [Cu+2] [Cu^2+]
- differences in planktonic cell susceptibility between the different strains [1]: no significant differences
- MIC72 h [1]: 8000 ± 0 µM
- MIC72 h [2]: 4000 ± 0 µM
- MIC72 h [3]: 8000 ± 0 µM
- MBEC99.9 [4]: 8 ± 0 mM
- MBEC99.9 ([5]; SCV biofilms): 64 ± 0 mM
- tolerance of SCV strain biofilms relative to the wild-type strain [5]: eight
- Log-survival ([6]; 16 μg mL^−1): −0.9 ± 0.1 log10 CFU peg^−1
- No. of survivors ([6]; 16 μg mL^−1): 4.2 ± 0.1 log10 CFU peg^−1
- SCV frequency ([6]; 16 μg mL^−1): 0%
- MBEC99.9 [6]: 7 ± 2 mM

Compound: CC[C@H]1OC(=O)[C@H](C)[C@@H](O[C@H]2C[C@@](C)(OC)[C@@H](O)[C@H](C)O2)[C@H](C)[C@@H](O[C@@H]2O[C@H](C)C[C@H](N(C)C)[C@H]2O)[C@](C)(O)C[C@@H](C)C(=O)[C@H](C)[C@@H](O)[C@]1(C)O [Erythromicin]
- selection for SCVs / increase of the frequency of SCV cells compared with growth controls ([7]; in words): in no instances
- biofilm resistance relative to PA14 wild type or toxA control strain [9]: moderately decreased resistance
- Log-survival ([8]; antibiotic 5 μg mL^−1): −0.1 ± 0.3 log10 CFU peg^−1
- No. of survivors ([8]; antibiotic 5 μg mL^−1): 6.4 ± 0.3 log10 CFU peg^−1
- SCV frequency ([8]; antibiotic 5 μg mL^−1): 0%

Compound: C[C@@H](O)[C@H]1C(=O)N2C(C(=O)O)=C(SCCN=CN)C[C@H]12 [Imipenem]
- Log-survival [7]: −3.8 ± 1.0 log10 CFU peg^−1
- SCV frequency [7]: 0%
- No. of survivors ([8]; antibiotic 1.25 μg mL^−1): 2.7 ± 1.0 log10 CFU peg^−1

Compound: Cc1onc(-c2ccccc2)c1C(=O)N[C@@H]1C(=O)N2[C@@H]1SC(C)(C)[C@@H]2C(=O)O [Oxacilin]
- frequency of SCVs (phenotypic variants) among surviving cells, in words [7]: approximately one in three
- Log-survival [7]: −0.9 ± 0.6 log10 CFU peg^−1
- SCV frequency [7]: 32%
- No. of survivors ([8]; antibiotic 1.25 μg mL^−1): 5.6 ± 0.6 log10 CFU peg^−1

Compound: CO[C@H]1/C=C/O[C@@]2(C)Oc3c(C)c(O)c4c(O)c(c(/C=N/N5CCN(C)CC5)c(O)c4c3C2=O)NC(=O)/C(C)=C\C=C\[C@H](C)[C@H](O)[C@@H](C)[C@@H](O)[C@@H](C)[C@H](OC(C)=O)[C@@H]1C [Rifampicin]
- cells killed from the biofilm population ([8]; 5 μg/mL): 0.7 log10 cells
- Log-survival ([8]; antibiotic 5 μg mL^−1): −0.7 ± 0.3 log10 CFU peg^−1
- No. of survivors ([8]; antibiotic 5 μg mL^−1): 5.7 ± 0.3 log10 CFU peg^−1
- SCV frequency ([8]; antibiotic 5 μg mL^−1): 58%

Compound: NC[C@H]1O[C@H](O[C@H]2[C@H](O)[C@@H](O[C@H]3O[C@H](CO)[C@@H](O)[C@H](N)[C@H]3O)[C@H](N)C[C@@H]2N)[C@H](N)C[C@@H]1O [Tobramicin]
- frequency of SCVs (phenotypic variants) among surviving cells, in words [7]: approximately one in five
- Log-survival [7]: −1.0 ± 0.5 log10 CFU peg^−1
- SCV frequency [7]: 14%
- No. of survivors ([8]; antibiotic 1.25 μg mL^−1): 5.4 ± 0.5 log10 CFU peg^−1

Compound: CC[C@H]1OC(=O)[C@H](C)[C@@H](O[C@H]2C[C@@](C)(OC)[C@@H](O)[C@H](C)O2)[C@H](C)[C@@H](O[C@@H]2O[C@H](C)C[C@H](N(C)C)[C@H]2O)[C@](C)(O)C[C@@H](C)CN(C)[C@H](C)[C@@H](O)[C@]1(C)O [azythromycin]
- biofilm resistance relative to PA14 wild type or toxA control strain [9]: moderately decreased resistance

Compound: O=C(N[C@H](CO)[C@H](O)c1ccc([N+](=O)[O-])cc1)C(Cl)Cl [chloramphenicol]
- biofilm resistance relative to PA14 wild type or toxA control strain [9]: moderately decreased resistance

Compound: CCN1CCN(C(=O)N[C@@H](C(=O)N[C@@H]2C(=O)N3[C@@H]2SC(C)(C)[C@@H]3C(=O)O)c2ccccc2)C(=O)C1=O [piperacillin]
- frequency of SCVs (phenotypic variants) among surviving cells, in words [7]: approximately one in three
- biofilm resistance relative to PA14 wild type or toxA control strain [9]: moderately decreased resistance

Compound: polymixin B
- biofilm resistance relative to PA14 wild type or toxA control strain [9]: moderately decreased resistance
